Key:
[1] = test system: P. falciparum male gametocytes; assay: P. falciparum Dual Gamete Formation Assay (PfDGFA), male readout (exflagellation); type: cell-based, Plasmodium falciparum NF54; conditions: for Average inhibition male (%): average of replicates; for % inhibition male (individual replicates) R1: replicate R1; for % inhibition male (individual replicates) R3: replicate R3; for % inhibition male (individual replicates) R4: replicate R4; for Activity: hit = >50% inhibition in male or female readout in at least 3 replicates, 0 = no class assigned
Procedure, shortened: (§1)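 Read-outs are automated image counts of exflagellation centres (brightfield, 10 frames over 1 s) and Pfs25-positive female gametes (Cy3 fluorescence).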

[2] = test system: P. falciparum female gametocytes; assay: P. falciparum Dual Gamete Formation Assay (PfDGFA), female readout (Pfs25-positive female gametes); type: cell-based, Plasmodium falciparum NF54; conditions: for Average inhibition female (%): average of replicates; for % inhibition female (individual replicates) R1: replicate R1; for % inhibition female (individual replicates) R3: replicate R3; for % inhibition female (individual replicates) R4: replicate R4
Procedure, shortened: as §1

[3] = 2µM, 24h preincubation with gametocytes prior to induction of gametogenesis
[4] = 2µM, 24h preincubation, number of replicates with >50% inhibition in the male readout
[5] = 2µM, 24h preincubation, number of replicates with >50% inhibition in the female readout
[6] = PfDGFA at 2µM, 24h preincubation with gametocytes prior to induction of gametogenesis
[7] = PfDGFA at 2µM, 24h preincubation
[8] = 2µM, 24h preincubation, hits selected on >50% inhibition in the male readout across replicates
[9] = 2µM, 24h preincubation, hits selected on >50% inhibition in the female readout across replicates
[10] = PfDGFA at 2µM, 24h preincubation with gametocytes
[11] = 2µM, 24h preincubation with gametocytes

SMILES | Average inhibition male (%) [1, 3] | % inhibition male (individual replicates) R1 [1, 3] | % inhibition male (individual replicates) R3 [1, 3] | % inhibition male (individual replicates) R4 [1, 3] | HitlevelM [1, 4] | Average inhibition female (%) [2, 3] | % inhibition female (individual replicates) R1 [2, 3] | % inhibition female (individual replicates) R3 [2, 3] | % inhibition female (individual replicates) R4 [2, 3] | HitlevelF [2, 5] | further results
COc1cc2ccccc2cc1OCCCN1CCN(CC(c2ccc(F)cc2)N2CCN(C(C)C)CC2)CC1.Cl (stereo not drawn) [TCMDC-135496] | 6.1% | 10.5% | -16.9% | 18.2% | 0 | 22.9% | 29.5% | 8.0% | 29.0% | 0 | –
CC(C)N1CCN(C(CN2CCN(CCCOc3ccccc3-c3ccccc3)CC2)c2ccc(F)cc2)CC1.Cl (stereo not drawn) [TCMDC-135499] | 13.5% | 15.7% | 14.1% | 9.5% | 0 | 28.0% | 23.1% | 16.4% | 32.9% | 0 | –
CC(=O)Nc1cccc(Nc2nccc(-c3c(-c4cccc(NC(=O)c5c(F)cccc5F)c4)nn4ncccc34)n2)c1 [TCMDC-135548] | – | – | – | – | – | – | – | – | – | – | % inhibition male (individual replicates) R1 [1, 6]: 29.2%; % inhibition male (individual replicates) R3 [1, 6]: 23.6%; % inhibition male (individual replicates) R4 [1, 6]: -3.8%; Average inhibition male (%) [1, 7]: 8.8%; % inhibition female (individual replicates) R1 [2, 6]: -7.4%; % inhibition female (individual replicates) R3 [2, 6]: -25.4%; % inhibition female (individual replicates) R4 [2, 6]: -8.4%; Average inhibition female (%) [2, 7]: -11.7%
CCS(=O)(=O)c1ccc(OC)c(Nc2nccc(-c3c(-c4cccc(NC(=O)c5c(F)cccc5F)c4)nn4ncccc34)n2)c1 [TCMDC-135682] | 69.4% | 83.8% | – | 34.3% | – | 14.6% | 17.1% | 13.9% | 13.6% | – | HitlevelM [1, 8]: 2; Activity [1, 7]: 0; HitlevelF [2, 9]: 0
C[C@@H](Oc1cc(-n2cnc3ccc(OCC4CCN(S(C)(=O)=O)CC4)cc32)sc1C(N)=O)c1ccccc1C(F)(F)F [TCMDC-135685] | 39.3% | 77.8% | 32.6% | -12.5% | 2 | 30.5% | 13.3% | 19.8% | 50.4% | 1 | –
COc1ccc2ncc(F)c(CCN3CCC(NCc4cc(F)c5c(c4)OCCO5)CC3)c2n1.Cl [TCMDC-135849] | – | – | – | – | – | – | – | – | – | – | % inhibition male (individual replicates) R1 [1, 6]: -15.0%; % inhibition male (individual replicates) R3 [1, 6]: -30.0%; % inhibition male (individual replicates) R4 [1, 6]: -21.8%; Average inhibition male (%) [1, 7]: -22.8%; % inhibition female (individual replicates) R1 [2, 6]: 9.2%; % inhibition female (individual replicates) R3 [2, 6]: -25.5%; % inhibition female (individual replicates) R4 [2, 6]: 10.6%; Average inhibition female (%) [2, 7]: -0.168%
COc1ccc(-c2cnc3[nH]cc(-c4ccncc4)c3c2)cc1OC [TCMDC-135853] | – | – | – | – | – | – | – | – | – | – | Average inhibition male (%) [1, 10]: 73.2%; % inhibition male (individual replicates) R1 [1, 10]: 70.5%; % inhibition male (individual replicates) R3 [1, 10]: 62.1%; % inhibition male (individual replicates) R4 [1, 10]: 76.3%; HitlevelM ([1]; number of replicates with >50% inhibition in the male readout, 2µM): 4; Average inhibition female (%) [2, 10]: 15.5%; % inhibition female (individual replicates) R1 [2, 10]: 9.0%; % inhibition female (individual replicates) R3 [2, 10]: 36.4%; % inhibition female (individual replicates) R4 [2, 10]: 5.3%; HitlevelF ([2]; number of replicates with >50% inhibition in the female readout, 2µM): 0
CC(C)CN1CCC(COc2ccc3ncn(-c4cc(O[C@H](C)c5ccccc5C(F)(F)F)c(C(N)=O)s4)c3c2)CC1 [TCMDC-135856] | – | – | – | – | – | – | – | – | – | – | % inhibition male (individual replicates) R1 [1, 6]: 69.3%; % inhibition male (individual replicates) R4 [1, 6]: -19.8%; Average inhibition male (%) [1, 7]: 39.0%; % inhibition female (individual replicates) R1 [2, 6]: -5.1%; % inhibition female (individual replicates) R3 [2, 6]: 3.7%; % inhibition female (individual replicates) R4 [2, 6]: -5.5%; Average inhibition female (%) [2, 7]: -0.7%
COc1ccc2ccccc2c1CCCCN1CCN(CC(c2ccc(F)cc2)N2CCC(N3CCCC3)CC2)CC1.O=C(O)C(F)(F)F (stereo not drawn) [TCMDC-135866] | 26.2% | 24.9% | 0.4% | 58.9% | 1 | 23.8% | 27.0% | 20.6% | 10.9% | 0 | –
COc1ccc2ccccc2c1CCCCN1CCN(CC(c2ccc(F)cc2)N2CCC2)CC1.O=C(O)C(F)(F)F (stereo not drawn) [TCMDC-135867] | 8.0% | -5.9% | -10.3% | 17.6% | 0 | 37.8% | 32.4% | 22.8% | 37.2% | 1 | –
Cc1c(OC(C)C)nc2ccccc2c1C(=O)N[C@H](c1cccc(F)c1)C1CC1 [TCMDC-135994] | – | – | – | – | – | – | – | – | – | – | % inhibition male (individual replicates) R1 [1, 6]: 5.7%; % inhibition male (individual replicates) R3 [1, 6]: 14.1%; % inhibition male (individual replicates) R4 [1, 6]: 25.6%; Average inhibition male (%) [1, 7]: 14.7%; % inhibition female (individual replicates) R1 [2, 6]: 11.9%; % inhibition female (individual replicates) R3 [2, 6]: -14.7%; % inhibition female (individual replicates) R4 [2, 6]: 16.8%; Average inhibition female (%) [2, 7]: 1.3%
CCn1c(-c2nonc2N)nc2c(-c3ccccc3)ncc(OCCCCNCCc3ncc[nH]3)c21.O=C(O)C(F)(F)F [TCMDC-136000] | – | – | – | – | – | – | – | – | – | – | Average inhibition male (%) [1, 11]: 92.8%; % inhibition male (individual replicates) R1 [1, 11]: 92.7%; % inhibition male (individual replicates) R3 [1, 11]: 86.1%; % inhibition male (individual replicates) R4 [1, 11]: 98.9%; Average inhibition female (%) [2, 11]: 36.6%; % inhibition female (individual replicates) R1 [2, 11]: 29.5%; % inhibition female (individual replicates) R3 [2, 11]: 30.1%; % inhibition female (individual replicates) R4 [2, 11]: 56.9%
COc1ccc2ncc(F)c(CCN3C[C@H](CNCc4nc5c(cc4Cl)OCC(=O)N5)[C@H](O)C3)c2n1.Cl [TCMDC-136031] | 6.8% | 19.6% | -8.5% | 9.5% | – | 9.3% | 13.9% | -6.7% | 27.7% | – | HitlevelM [1, 8]: 0; Activity [1, 7]: 0; HitlevelF [2, 9]: 0
COc1ccc2nccc([C@H](O)CN3CCC(NCc4ccc5c(c4C)OCCO5)CC3)c2n1.Cl [TCMDC-136066] | -9.6% | -4.0% | -34.1% | 0.2% | – | 6.6% | 21.2% | -26.0% | 9.8% | – | HitlevelM [1, 8]: 0; Activity [1, 7]: 0; HitlevelF [2, 9]: 0
Cn1cc(CN2CCC(OC(c3ccccc3)c3ccc(Cl)cc3)CC2)cn1 (stereo not drawn) [TCMDC-136165] | 26.9% | 21.0% | 11.7% | 55.6% | 1 | 27.9% | 28.0% | 20.7% | 33.3% | 0 | –
CCn1c(-c2nonc2N)nc2c(-c3cccc(NC(=O)Nc4ccccc4OC)c3)ncc(OCCCN)c21.O=C(O)C(F)(F)F [TCMDC-136190] | 38.6% | 46.0% | 15.9% | 54.2% | 1 | 31.3% | 29.0% | 9.1% | 20.1% | 1 | –
Cc1[nH]cc(Br)c(=O)c1-c1ccc(Oc2ccc(OC(F)(F)F)cc2)cc1 [TCMDC-136197] | -14.5% | -14.1% | -25.2% | -5.8% | – | 8.0% | 22.6% | 0.02% | -5.7% | – | HitlevelM [1, 8]: 0; Activity [1, 7]: 0; HitlevelF [2, 9]: 0
